In US9066923B2, “Methods for Alzheimer's disease treatment and cognitive enhancement” (Blanchette Rockefeller Neurosciences Institute, priority 2002, dated 2015):

Legend:
[1] = system: sAPPα secretion; test: sAPPα secretion in cultured human skin fibroblasts (immunoblot, antibody 6E10); assay type: cell-based
Experimental: (§1) Cultured skin fibroblasts were obtained from the Coriell Cell Repositories and grown using the general guidelines established for their culture with slight modifications (Cristofalo & Carptentier, 1988; Hirashima et al., 1996). The culture medium in which cells were grown was Dulbecco's modified Eagle's medium (GIBCO) supplemented with 10% calf serum (Biofluids, Inc.). Fibroblasts from control cell lines (AC), cases AG07141 and AG06241, and a familial AD (FAD) case (AG06848) were utilized.

[2] = molecular target: T1, PKCα isozyme (Homo sapiens, UniProt P17252); test: PKC translocation to the cell membrane (immunoblot of cytosolic and membranous fractions of fibroblasts); assay type: cell-based
T1 construct: endogenous in cells; host or cells: cultured skin fibroblasts from Coriell Cell Repositories (AG07141, AG06241, AG06848)
Experimental: as §1
Immunoblot experiments were conducted using well-established procedures (Dunbar, 1994). Cells were grown to confluency (˜90%) in 6 cm Petri dishes. […] Fibroblasts were washed twice with ice-cold PBS, scraped in PBS, and collected by low-speed centrifugation. The pellets were re-suspended in the following homogenization buffer: 20 mM Tris-HCl, pH 7.5, 2 mM EDTA, 2 mM EGTA, 5 mM DTT, 0.32 M sucrose, and protease inhibitor cocktail (Sigma). Hemogenates were obtained by sonication, and centrifuged at […] for 20 minutes, and the supernatants were used as the cytosolic fraction. The pellets were homogenized in the same buffer containing 1.0% Triton X-100, incubated in ice for 45 minutes, and centrifuged at ˜12,000 g for 20 minutes. The supernatant from this batch was used as the membranous fraction. After protein determination, 20 μg of protein were diluted in 2× electrophoresis sample buffer (Novex), boiled for 5 minutes, run on 10% acrylamide gel, and transferred electrophoretically to a PVDF membrane. The membrane was saturated with 5% milk blocker by incubating it at room temperature for an hour. The primary antibody for PKC isoform (Transduction Laboratories) was diluted (1:1000) in blocking solution and incubated with the membrane overnight at 4° C. After incubation with the secondary antibody, alkaline phosphatase anti-mouse IgG (Vector Laboratories), the membrane was developed using a chemoluminescent substrate (Vector Laboratories) per the manufacturer's instructions. The band intensities were quantified by densitometry using a BioRad GS-800 calibrated scanning densitometer and Multianalyst software (BioRad).

[3] = system: rats; test: Morris Water Maze; assay type: in vivo, rat; conditions: intraventricular injection
From the text: (See, for example, Hollister, L. E., 1990, Pharmacopsychiat., 23, (Suppl II) 33-36). The available animal models of memory loss and impaired learning involve measuring the ability of animals to remember a discrete event. These tests include the Morris Water Maze and the passive avoidance procedure. In the Morris Water Maze, animals are allowed to swim in a tank divided into four quadrants, only one of which has a safety platform beneath the water. The platform is removed and the animals are tested for how long they search the correct quadrant verse the incorrect quadrants. In the passive avoidance procedure the animal remembers the distinctive environment in which a mild electric shock is delivered and avoids it on a second occasion. A variant of the passive avoidance procedure makes use of a rodent's preference for dark enclosed environments over light open ones. Further discussion can be found in Crawley, J. N., 1981, Pharmacol. Biochem. Behav., 15, 695-699; Costall, B. et al, 1987, Neuropharmacol., 26, 195-200; Costall, B. et al., 1989, Pharmacol. Biochem. Behav., 32, 777-785; Barnes, J. M. et al., 1989, Br. J. Pharmacol., 98 (Suppl) 693P; Barnes, J. M. et al. 1990, Pharmacol. Biochem. Behav., 35, 955-962.
In the present example, rats were injected intraventricularly with bryostatin-1 and trained for 4 days (following standard protocols). Retention was assessed on the 5th day. […] Acquisition of memory was measured as time spent in the relevant quadrant (5th day). […] (See, FIG. 4). Bryostatin is capable of being used at concentrations to improve cognition that are 300 to 300,000 times lower than the concentration used to treat tumors.

[4] = molecular target: T1, PKCα isozyme; conditions: cited from earlier work
[5] = system: patients; conditions: cited from earlier work
[6] = system: tumor promotion; conditions: cited from earlier work
[7] = system: diacylglycerol-protein kinase C; conditions: aorta of diabetic rats and cultured rat smooth muscle cells exposed to elevated glucose (Kunisaki et al. 1994); cited from earlier work
[8] = system: patients suffering from moderately advanced Alzheimer's Disease; conditions: 2000 IU/day (Burke et al. 1999); cited from earlier work

CCC/C=C/C=C/C(=O)O[C@H]1/C(=C/C(=O)OC)C[C@H]2C[C@H]([C@@H](C)O)OC(=O)C[C@H](O)C[C@@H]3C[C@H](OC(C)=O)C(C)(C)[C@](O)(C[C@@H]4C/C(=C/C(=O)OC)C[C@H](/C=C/C(C)(C)[C@]1(O)O2)O4)O3 [bryostatin-1]
sAPP secretion ([1]; 0.1 nM bryostatin-1, compared to vehicle alone and benzolactam): dramatic increase of sAPP secretion
sAPPα secretion, efficacy compared with controls and Benzolactam (FIG. 1) ([1]; FIG. 1): greater efficacy at lower concentrations than controls and Benzolactam
sAPP secretion ([1]; bryostatin at 0.01 nM): still proved effective to increase sAPP secretion
activation of PKC (immunoblot, FIG. 7) ([2]; 0.1 nM bryostatin-1, 30 minutes after delivery): easily detectable
response demonstrating the activation of PKC (FIG. 7) ([2]; AD cells, FIG. 7): powerful response
time of maximal PKC translocation to the cell membrane (PKC activation) ([2]; bryostatin): 30 min
PKC translocation after the maximum, compared with basal level ([2]; partial decline after 30 min, followed up to six hours): remains higher than basal translocation levels up to six hours
memory or retention: time spent in the relevant quadrant ([3]; 5th day, versus sham injection): significantly enhanced
time to improved cognition compared to control rats ([3]; FIG. 4): ≤ 2 days
learning: escape latency from trial to trial ([3]; trained for 4 days, versus sham injection): significantly lower
shape of the dose response curve as PKC activator [4]: biphasic
tolerability ([5]; 20 μg/m^2 once per week for 3 weeks (Weitman et al. 1999)): well tolerated and were not associated with myalgia or other side effects
maximum-tolerated dose ([5]; 1 hour i.v. infusion once every 2 weeks for 6 weeks (Prendville et al. 1993)): 50 μg/m^2
maximum tolerated dose ([5]; once per week for 8 weeks (Jayson et al. 1995)): 25 μg/m^2
tumor promotion activity [6]: devoid of tumor promotion activity

vitamin E
diacylglycerol-protein kinase C activation [7]: normalize diacylglycerol-protein kinase C activation
cognitive abilities [8]: did not enhance cognitive abilities
mortality and morbidity [8]: reduced mortality and morbidity
